This is an account of results in patent US10869924B2, “PD-L1 antagonist combination treatments” (MERCK PATENT GMBH, priority 2015, dated 2020).

One data set relates to clear cell aRCC. As to conditions: cited from earlier work; for median PFS (mPFS): previously untreated patients with clear cell aRCC, axitinib 5 mg BID, single agent.
Another data set deals with human PBMC. Nature of the data set: Cytokine release, standard human PBMC in vitro test. The format is cell-based. The source says:
The combination of avelumab plus anti-4-1BB antibody PF-05082566 and anti-OX40 antibody PF-04518600 has been evaluated for cytokine release using the standard human PBMC in vitro test. The cytokine release assay was completed for PF-05082566 alone and in combination with avelumab and PF-04518600.

With `CNC(=O)c1ccccc1Sc1ccc2c(/C=C/c3ccccn3)n[nH]c2c1` [axitinib, N-methyl-2-[3-((E)-2-pyridin-2-yl-vinyl)-1H-indazol-6-ylsulfanyl]-benzamide], in the data set on clear cell aRCC (axitinib vs. sorafenib, 95% CI 0.56, 1.05), the “stratified hazard ratio (PFS)” value was 0.77. In addition, the “median PFS (mPFS)” value in the data set with clear cell aRCC is 10.1 months.
Take `CNC(=O)c1cc(Oc2ccc(NC(=O)Nc3ccc(Cl)c(C(F)(F)F)c3)cc2)ccn1` [sorafenib]: the “median PFS (mPFS)” value in the data set with clear cell aRCC is on record as 6.5 months.
As for “PF-05082566: novel fully human IgG2 monoclonal antibody agonist of 4-1BB”, the cytokine release result with human PBMC was “did not show a significant increase in cytokine release”.
